According to patent publication US11506670B2, “Method of genome-wide direct identification of electrophile-sensing targets” (Cornell University, priority 2018, dated 2022):
Where a SMILES comes first, the peptide text is derived from it. The star is where a group is joined. Cbz = O=C(OCc1ccccc1)*

Key:
[1] = tested on: Ube2V2 ubiquitination and cellular Ub pools; assay: Ubiquitination analysis by IP, K63-TUBE pulldown and western blot in HEK293T cells; assay type: cell-based, human; conditions: for amount of ubiquitinated-Ube2V2 formed upon targeted-HNEylation: proteasome inhibitor treatment with T-REX
Protocol: Cells were lysed in 1×RIPA buffer containing in final concentrations 1× Protease inhibitor, 1 mM sodium orthovanadate and 1 mM PMSF, by rapid freeze-thaw (×3). Cell debris was removed and the supernatant was collected after centrifugation at 18,000×g for 20 min at 4° C. Protein concentration was determined using Bradford assay. 30-50 μg of total lysates were subjected to SDS-PAGE and the gel was transferred onto a PVDF membrane at 100 V for 1 h at 4° C. or at 40 V overnight at 4° C. Membrane was blocked with 10% milk and probed with various antibodies at the indicated dilutions (Table 4, above).
HEK 293T cells were seeded in 2×60 cm^2 plates. After the cells reached 60% confluence (˜18-24 h), the old media was replaced with 8 mL of fresh complete media. Cells were transfected with 7.5 μg of the designated Halo clone and 30 μL PEI (1 mg/mL) in 600 μL in Opti-MEM media for 24-36 h after which the cells were treated with 25 μM Ht-PreHNE for 2.5 h. Rinsing and light shining protocol were as described above. Cells were harvested, pooled, washed twice with chilled 1×DPBS and flash frozen. Cell lysis was performed in 100-200 μL per 1.5×10^6 cells of either: lysis buffer [containing in final concentrations 50 mM HEPES (pH 7.6), 150 mM NaCl, 1% Nonidet P-40 and 1× Roche cOmplete, mini, EDTA-free protease inhibitor cocktail] for Flag pull down; or RIPA buffer [containing in final concentrations 50 mM HEPES (pH 7.6), 150 mM NaCl, 1% Nonidet P-40, 0.1% SDS, 0.25% sodium deoxycholate, and 1× Roche cOmplete, mini, EDTA-free protease inhibitor cocktail] for HA pull down, followed by rapid freeze-thaw cycles (×3). Lysate was clarified by centrifugation at 18,000×g for 10 min at 4° C. Total protein concentration was determined using Bradford assay with BSA as standard. The lysate was subsequently diluted to 2 mg/mL with binding buffer containing in final concentrations 50 mM HEPES (pH 7.6), 150 mM NaCl, 1× Roche cOmplete, mini, EDTA-free protease inhibitor cocktail, and 0.1% Tween-20. This diluted lysate was subjected to either 50-100 μL bed volume of ANTI-FLAG® M2 affinity gel (A2220, Sigma) or monoclonal anti-HA-agarose (clone HA-7, A2095, Sigma) that had been pre-equilibrated with the binding buffer above. The sample was incubated with beads for 2-3 h at 4° C. by end-over-end rotation after which time the supernatant was removed post-centrifugation at 1000×g (anti-FLAG pull down) or 5000×g (anti-HA pull down) for 3 min. The beads were washed three times at 4° C. with 500 μL wash buffer containing in final concentrations 50 mM HEPES (pH 7.6), 150 mM NaCl, 1× Roche cOmplete, mini, EDTA-free protease inhibitor cocktail, and 0.1% Tween-20, using end-over-end rotation over 10 min during each wash. The bound protein was eluted by either incubating with 0.15 mg/mL 3× flag peptide for 2 h at 4° C. (anti-Flag pull down) or by boiling the beads at 98° C. for 10 min with 30 μL of 3× Laemmeli dye containing 6% βME (anti-HA pull down). The sample was subjected to SDS-PAGE and transferred to a PVDF membrane for western blot analysis described above.
Cells were grown and transfected as described above. After T-REX™ delivery, cells were harvested and lysed in 100-200 μL (˜1.5×10^6 cells) of lysis buffer [containing in final concentrations 50 mM HEPES (pH 7.6), 300 nM Biotin K63-TUBE, 150 mM NaCl, 5 mM EDTA, 3 mM 1,10-phenanthroline, 5 mM NEM, 20 μM PR-619, 1% Nonidet P-40 and 1× Roche cOmplete, mini, EDTA-free protease inhibitor cocktail] according to manufactures' manual (Biotin K63 TUBE, Lifesensors). Lysate was clarified by centrifugation at 18,000×g for 10 min at 4° C. Total protein concentration was determined using Bradford assay using BSA as standard. […]

zebrafish embryos = assay: Zebrafish embryo morphology and survival, stereomicroscope; assay type: in vivo, zebrafish (Danio rerio)
Text: Fish were then dechorionated, deyolked, lysed and HNEylated proteins were captured by Click coupling with biotin-azide and subsequent streptavidin pulldown (see workflow in FIG. 4A, Clicking with biotin-azide). HNEylation of Ube2V2 in fish also led to polyubiquitination of Ube2V2, indicating mechanistic conservation between fish and humans, and functional relevance of this electrophile regulatory pathway in vivo. Also see FIG. 14C. […] After 36-h fish were dechorionated and imaged using a stereomicroscope. Scale bars, 545 μm.
Fertilized eggs at the 1-2 cell stage from casper zebrafish were injected with mRNA (1.6 mg/ml) into the yolk sack. Immediately after injection, embryos were pooled, and separated into two petri dishes (10 cm) filled with 30 mL 10% Hank's salt solution with methylene blue and penicillin (100 U/mL)/streptomycin (100 μg/ml). To one set was added the HaloTag-targetable photocaged precursor to HNE (Ht-PreHNE, hereafter) (<15 μM) and the other DMSO in the dark. Embryos were maintained at 28° C. in the dark for 28 h then they were washed in 10% Hank's solution with no methylene blue/antibiotic (3 times for 30 min each). Embryos were moved to 6-well plates. Half of the embryos (Ht-preHNE-treated or -untreated) were irradiated with UV light (5 min), and the other half of each set was not irradiated. […]

γ-H2AX [2] = assay: γ-H2AX immunofluorescence in HEK293T cells; assay type: cell-based, human
Protocol: Cells were grown to 70% confluence in 35 mm glass-bottomed dishes and transfected with HaloTagged plasmids. T-REX™ delivery was performed as mentioned above. […] The fixative was aspirated and the cells washed three times with 1×DPBS with 5-min incubation at room temperature. Blocking and permeabilization was performed in one-step by incubation at 37° C. for 1 h in 1×DPBS containing 3% BSA and 0.2% Triton X-100. Cells were subsequently incubated with primary antibody (1:300, Table 4) in incubation buffer (1% BSA, 0.02% Triton X-100 in 1×DPBS) for 2 h at room temperature. Cells were rinsed 3 times with 1×DPBS with 5 min incubation for each wash and subsequently incubated in dark for 1 h at room temperature with corresponding second antibody (1:1000, Table 4) in incubation buffer. Cells were rinsed 3 times with 1×DPBS with 5 min incubation for each rinse. DAPI (Sigma) was freshly prepared in 1×DPBS from 2 mg/mL wt./v stock solution in water and added to the wells at the final concentration of 0.2 μg/mL. The samples were incubated in dark for 1 min and washed once with 1×DPBS and stored at 4° C. in dark till images were taken using a Zeiss LSM 710 meta confocal fluorescence microscope. Image analysis was performed using Image-J (NIH).

γ-H2AX [3] = assay: T-REX in zebrafish embryos, whole-mount γ-H2AX immunofluorescence; assay type: in vivo, zebrafish (Danio rerio); conditions: 3 h post light exposure
Protocol: Fertilized eggs at the 1-2 cell stage from casper zebrafish were injected with mRNA (1.6 mg/ml) into the yolk sack. Immediately after injection, embryos were pooled, and separated into two petri dishes (10 cm) filled with 30 mL 10% Hank's salt solution with methylene blue and penicillin (100 U/mL)/streptomycin (100 μg/ml). To one set was added the HaloTag-targetable photocaged precursor to HNE (Ht-PreHNE, hereafter) (<15 μM) and the other DMSO in the dark. Embryos were maintained at 28° C. in the dark for 28 h then they were washed in 10% Hank's solution with no methylene blue/antibiotic (3 times for 30 min each). Embryos were moved to 6-well plates. Half of the embryos (Ht-preHNE-treated or -untreated) were irradiated with UV light (5 min), and the other half of each set was not irradiated. Embryos were left for 8 h at which point they were euthanized, washed with cold 1×DPBS and dechorionated (and deyolked if protein analysis was to be undertaken).
DDR preconditioning occurs in zebrafish embryos. […] Subsequently, the fish were fixed and γ-H2AX levels were measured using whole-mount immunofluorescence.

Ube2N = assay: Lentiviral shRNA knockdown of Ube2N, western blot; assay type: cell-based, human
Protocol: HEK293T packaging cells were seeded and grown overnight in antibiotic free media in 6 well plates. At 80% confluence, each well was transfected with packaging plasmid (pCMV-R8.74psPAX2, 500 ng), envelope plasmid (pCMV-VSV-G, 50 ng) and pLKO vector (500 ng) using TransIT.LT1 as per the manufacturer's protocol. After 18 h, media were removed and replaced with 20% serum containing media. After 24 h, media containing viruses were collected, spun down and passed through a 0.6 micron filter and stored at −80° C. or used directly.
Cells in log phase were treated with 0.6 ml of virus supernatant (from above) in 8 μg/ml polybrene in a total of 6 ml of media in a 6-well plate. After 24 h, media were removed and replaced with media containing 2 μg/ml puromycin (which was completely toxic to all lines used in this study). Cells were cultured until the plate was confluent, then cells were split and moved to a 10 cm dish in 2 μg/ml puromycin containing media and grown again until reaching confluence. At this, the line was considered to be “selected”, and target gene expression was analyzed by western blot and compared to shRNA controls. […]
Cells were lysed in 1×RIPA buffer containing in final concentrations 1× Protease inhibitor, 1 mM sodium orthovanadate and 1 mM PMSF, by rapid freeze-thaw (×3). […] Protein concentration was determined using Bradford assay. […]

PTEN = target: T1, PTEN (Homo sapiens, UniProt P60484); assay: InPAkt FRET biosensor assay of PIP3 after PTEN-targeted T-REX; assay type: cell-based
T1 construct: host or cells: HEK-293
T1 sequence (P60484 whole entry): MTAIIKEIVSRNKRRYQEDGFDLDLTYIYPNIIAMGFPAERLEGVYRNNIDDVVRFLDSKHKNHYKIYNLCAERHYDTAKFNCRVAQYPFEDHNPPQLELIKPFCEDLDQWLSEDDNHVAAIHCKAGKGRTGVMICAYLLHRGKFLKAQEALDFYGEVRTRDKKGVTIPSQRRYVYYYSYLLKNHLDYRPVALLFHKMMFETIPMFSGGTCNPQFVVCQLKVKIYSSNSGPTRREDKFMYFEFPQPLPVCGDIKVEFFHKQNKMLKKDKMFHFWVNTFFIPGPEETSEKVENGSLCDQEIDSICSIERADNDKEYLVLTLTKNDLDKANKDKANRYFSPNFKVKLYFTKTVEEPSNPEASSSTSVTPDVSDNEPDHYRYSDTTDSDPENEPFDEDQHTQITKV
Protocol: (ii) Transfect each plate with 1000 ng of Halo-PTEN and 1000 ng of InPAkt reporter plasmid. Transfect with TransIT-2020 following the manufacturer's protocol.
(iv) Treatment of cells with T-REX™ delivery photocaged precursor, photo-uncaging and cell fixing. Treat the cells with photocaged precursor as described in Section 2, Step 39A. The amounts of reagents used should be scaled up for 4×35 mm adherent culture dish.
(v) Irradiate the cells with UV light only for 3 min. After shining light on the sample. Incubate the plates at 37° C. for 10 hours. Longer irradiation time will result in photobleaching of the FRET reporter proteins.
(vi) Imaging and data analysis. […] Blue laser (408 nm) is used for excitation. Record the signals in cyan channel (463-498 nm) and yellow channel (525-620 nm).
(vii) Analyse the images using ImageJ software (NIH). To do this, determine the average cyan and yellow fluorescence intensity for each cell by drawing a free hand circle around the image. Repeat this for each condition such that 150-200 cells were analyzed each time from multiple different frames. Calculate the ratio of mean yellow to mean cyan fluorescence intensity for each condition, then plot these values and analyse the results using prism. To get reliable results, it is important to collect images from at least 150 individual cells per condition.

[4] = Chemical stability of HNE(alkyne); assay type: physicochemical; conditions: air
Protocol: (iv) Isolate the pure product via flash chromatography using hexanes: Et20 (4:1 v/v) as eluent (Rf=0.5 in hexanes: Et2O 4:1). […] The purified material should be characterized promptly and during this time may be stored under Ar at room temperature. For long-term storage, HNE(alkyne) should be stored as one-shot aliquots in DMSO at −80° C. and must be used immediately once thawed.

CC(C)C[C@@H](C=O)NC(=O)[C@H](CC(C)C)NC(=O)[C@H](CC(C)C)NC(=O)OCc1ccccc1 [MG132] (Cbz-Leu-Leu-Leu-aldehyde)
pan cellular poly-Ub-pools ([1]; HEK293T): elevated pan-Ub-pools
amount of ubiquitinated-Ube2V2 formed upon targeted-HNEylation [1]: had no effect on the amount of ubiquitinated-Ube2V2

CO[C@@]12[C@H](COC(N)=O)C3=C(C(=O)C(C)=C(N)C3=O)N1C[C@@H]1N[C@@H]12 [Mitomycin-C]
embryo deformity / death (zebrafish embryos): severely deformed or died during treatment
γ-H2AX in Ube2V2-C69S-expressing and Ube2N-deficient cells (γ-H2AX [2]): still upregulated γ-H2AX
γ-H2AX upregulation (γ-H2AX [2]; positive control): 3-4 fold
γ-H2AX levels in zebrafish embryos (γ-H2AX [3]): high level of γ-H2AX-expression relative to untreated fish

#18: shRNA targeting Ube2N in pLKO1 vector (SEQ ID NO: 65) (CCGGGCTGAGGCATTTGTGAGTCTTCTCGAGAAGACTCACAAATGCCTCAGCTTTTT)
Ube2N knockdown strength (Ube2N): weaker knockdown

C#CCCCC(O)/C=C/COc1c(CC(=O)NCCOCCOCCCCCCCl)ccc2c1C(=O)c1ccccc1C2=O (stereo not drawn) [Ht-PreHNE]
FRET signal (PTEN; T-REX on Halo-PTEN vs light alone): selectively enhances FRET signal
YFP:CFP emission ratio (PTEN; precursor treatment alone, no light): did not perturb the emission ratio significantly
γ-H2AX levels in zebrafish embryos (γ-H2AX [3]): regulates γ-H2AX levels in zebrafish

CC(C)C[C@H](NC(=O)[C@H](Cc1ccccc1)NC(=O)c1cnccn1)B(O)O [bortezomib]
pan cellular poly-Ub-pools ([1]; HEK293T): elevated pan-Ub-pools
amount of ubiquitinated-Ube2V2 formed upon targeted-HNEylation [1]: had no effect on the amount of ubiquitinated-Ube2V2

N#CSc1cc(SC#N)c(N)nc1N [PR-619]
K63-linked total cellular Ub pools ([1]; HEK293T): promoted elevation of K63-ubiquitination
ubiquitination of Ube2V2 wt vs C69S ([1]; HEK293T): promote ubiquitination of Ube2V2(C69S) as efficiently as wt-Ube2V2

C#CCCCC(O)C=CC=O (stereo not drawn) [HNE(alkyne), 4-hydroxynonenal alkyne]
stability [4]: highly unstable to air-oxidation and polymerization
